Assay results reported in patent US10766902B2, “Wee-1 inhibiting pyrazolopyrimidinone compounds” (ALMAC DISCOVERY LIMITED, priority 2016, dated 2020).
Like-named read-outs stand apart in the source and are kept apart here.

What was measured:
[1] = test system: phosphorylation of Cdc2 at Tyr15; experiment: ELISA for phosphorylation of Cdc2 at Tyr15 in HT-29 / HCT-116 cells; type: cell-based; settings: Homo sapiens
Description: Method 2: Determining the Effect of Compounds on the Phosphorylation of Cdc2 at Tyr15
The colorectal cancer cell lines HT-29 and HCT-116 were purchased from the ATCC and routinely maintained in McCoy's Medium (Invitrogen) supplemented with 10% Foetal Calf Serum.
The cells were trypsinised from their growing vessel and counted, 100 μL of cell suspension containing 6000 cells was pipetted into black 96 well Co-star plates and incubated overnight to allow adherence to the surface at a temperature of 37° C. and an atmosphere of 5% CO2. Test compounds were formulated in DMSO and diluted in foetal calf serum supplemented medium. Incubating medium was removed by aspiration and diluted drug supplemented medium added to each well.
The plate was returned to the incubator for an additional eight hours at 37° C. and an atmosphere of 5% CO2. Post incubation, the drug supplemented medium was aspirated from each well and the cells were washed once in ice-cold phosphate buffered saline (PBS). 100 μL of cell lysis buffer (Cell Signalling Technologies #9803) containing 20 mM Tris, 150 mM NaCl, 1 mM EDTA, 1 mM EGTA, 1% Triton-X100, 2.5 mM sodium pyrophosphate, 1 mM glycerophosphate, 1 mM Na3VO4 and 1 μg/mL leupeptin was added to each well of the 96 well plate and incubated at 4° C. for 30 min. The samples on the plate were snap frozen at −80° C. until required. Immediately before the continuation of the assay, the sample plate was thawed and centrifuged at 4° C. for 10 min and the supernatant transferred to secondary tubes or 96 well plate.
Cell supernatant was mixed in a ratio of 1:1 with sample dilutent buffer and vortexed for one minute. 100 μL of diluted sample was pipetted into pre-coated plates containing a rabbit polyclonal antibody for phospho-cdc2 (Tyr15) (Cell Signalling Technologies PathScan kit #7176). The plate was sealed and incubated overnight at 4° C.
The plate seal was removed and the well contents aspirated, followed by 3×5 min washes with 200 μL of diluted wash buffer. Between each wash the plate was tapped firmly onto blotting paper to ensure the removal of all kit solution. 100 μL of kit detection antibody was added to each well and the plate re-sealed and incubated at 37° C. for 1 h. Post incubation the plate was washed and processed in a similar manner to that previously described.
100 μL of horseradish peroxidise-linked secondary antibody was added to each test well, the plate sealed and incubated for thirty minutes at 37° C. Post incubation, the plate was washed as previously stated, followed by the addition of 100 μL of 3,3′,5,5′ tetramethylbenzidine (TMB reagent). The plate was sealed and incubated at RT for 30 min.
100 μL of stop solution was added to each well and the underside of the plate wiped with a lint-free tissue, prior to spectrophotometric determination. Absorbance from each well was read at 450 nm within 30 min of the addition of the stop solution.
The percentage of phospho-cdc2 was calculated compared to DMSO control and plotted versus the concentration of inhibitor using GraphPad Prism. Data was fitted using non-linear regression analysis and IC50 values generated.

Wee-1 kinase = Wee-1 kinase (Homo sapiens (Human), UniProt P30291); experiment: Measurement of Wee-1 kinase activity (ADP-Glo luminescence); type: biochemical
Wee-1 kinase, sequence (P30291 whole entry): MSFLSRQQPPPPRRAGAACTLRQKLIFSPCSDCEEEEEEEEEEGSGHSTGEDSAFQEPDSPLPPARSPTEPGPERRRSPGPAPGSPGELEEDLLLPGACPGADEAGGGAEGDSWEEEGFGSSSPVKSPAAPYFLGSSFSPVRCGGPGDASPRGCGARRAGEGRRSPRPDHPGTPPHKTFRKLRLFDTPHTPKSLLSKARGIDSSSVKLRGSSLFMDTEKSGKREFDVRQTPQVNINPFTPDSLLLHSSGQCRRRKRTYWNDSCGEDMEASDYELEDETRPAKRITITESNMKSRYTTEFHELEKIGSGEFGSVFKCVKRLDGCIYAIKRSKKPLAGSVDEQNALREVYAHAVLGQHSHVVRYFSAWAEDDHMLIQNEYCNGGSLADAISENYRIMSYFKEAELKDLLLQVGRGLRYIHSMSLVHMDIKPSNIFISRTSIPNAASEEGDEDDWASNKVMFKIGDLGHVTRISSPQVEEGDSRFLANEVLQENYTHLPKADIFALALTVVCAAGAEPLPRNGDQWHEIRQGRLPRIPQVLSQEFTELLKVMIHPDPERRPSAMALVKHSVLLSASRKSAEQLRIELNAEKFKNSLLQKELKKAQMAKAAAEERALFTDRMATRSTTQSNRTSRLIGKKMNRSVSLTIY
Method in brief: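 Activated Wee-1 preincubated 30 min at RT with compound in Tris/MgCl2 buffer with BSA and DTT, then reacted 1 h at RT with poly(Lys,Tyr 4:1) (2.0 μg/mL) and 30 μM ATP as added aliquot. ADP formed measured by ADP-Glo luminescence; IC50 by non-linear regression of % inhibition.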

A498 cells = experiment: Cell viability (CellTiter-Glo), A498; type: cell-based; settings: Homo sapiens, A498, 144 h; cell viability after 6 days
Description: (§1) All cell lines (HT29, A427, A498, SKLU-1) were obtained from the American Type Culture Collection (ATCC), maintained in the recommended media supplemented with 10% (v/v) FBS, 1% (v/v) Penicillin/streptomycin and kept at 37° C. in a humidified atmosphere with 5% CO2. Cells were seeded in 96 wp format typically at a seeding density of 3500-5000 cells/well and treated after 24 hours with increasing concentration of compound from 0 to 100 μM in ½ log unit increments. Cell viability was assessed after 72 hours (HT29, A427) or after 6 days (SKLU-1, A498) by CellTiter-Glo® as recommended by the manufacturer's instructions (Promega). Analysis and EC50 values were derived using GraphPadPrism.

A427 cells = experiment: Cell viability (CellTiter-Glo), A427; type: cell-based; settings: Homo sapiens, A-427; cell viability after 72 hours
Description: as §1

SK-LU-1 cells = experiment: Cell viability (CellTiter-Glo), SK-LU-1; type: cell-based; settings: Homo sapiens, SK-LU-1, 144 h; cell viability after 6 days
Description: as §1

HT29 cells = experiment: Cell viability (CellTiter-Glo), HT29; type: cell-based; settings: Homo sapiens, HT-29; cell viability after 72 hours
Description: as §1

[2] = 8 h, Table 2, colorectal cancer cells, eight hours incubation, read-out: ELISA p-CDC2 EC50
[3] = Table 3, read-out: ELISA p-CDC2 EC50
[4] = Table 7, data obtained as described in the experimental section of the current invention, read-out: Wee-1/nM

Structure (SMILES)	EC50 [1, 2] [nM]	IC50 (Wee-1 kinase; read-out: Wee1 IC50) [nM]	also measured
C=CCn1c(=O)c2cnc(Nc3ccc(N4CCN(C(C)C)CC4)cc3)nc2n1-c1cccc(N=S(C)(C)=O)n1 [Example 7, 1-(6-{[Dimethyl(oxo)-λ^6-sulfanylidene]amino}pyridine-2-yl)-2-(prop-2-en-1-yl)-6-({4-[4-(propan-2-yl)piperazin-1-yl]phenyl}amino)-1H,2H,3H-pyrazolo[3,4-d]pyrimidin-3-one]	9	0.7	–
C=CCn1c(=O)c2cnc(Nc3ccc(N4CCOCC4)cc3)nc2n1-c1cccc(N=S(C)(C)=O)n1 [Example 12, 1-(6-{[Dimethyl(oxo)-λ^6-sulfanylidene]amino}pyridine-2-yl)-6-{[4-(morpholin-4-yl)phenyl]amino}-2-(prop-2-en-1-yl)-1H,2H,3H-pyrazolo[3,4-d]pyrimidin-3-one]	26	0.5	EC50 [1, 3]: 26 nM; IC50 (Wee-1 kinase; [4]): 0.5 nM; EC50 (A498 cells): 27 nM; EC50 (A427 cells): 27 nM; EC50 (SK-LU-1 cells): 30 nM; EC50 (HT29 cells): 27 nM
C=CCn1c(=O)c2cnc(Nc3ccc(N4CCNCC4)c(Cl)c3)nc2n1-c1cccc(N=S(C)(C)=O)n1 [Example 14, 6-{[3-Chloro-4-(piperazin-1-yl)phenyl]amino}-1-(6-{[dimethyl(oxo)-λ^6-sulfanylidene]amino}pyridine-2-yl)-2-(prop-2-en-1-yl)-1H,2H,3H-pyrazolo[3,4-d]pyrimidin-3-one]	5	0.8	–
CC(C)n1c(=O)c2cnc(Nc3ccc(N4CCN(C)CC4)cc3)nc2n1-c1cccc(N=S(C)(C)=O)n1 [Example 20, 1-(6-{[Dimethyl(oxo)-λ^6-sulfanylidene]amino}pyridin-2-yl)-6-{[4-(4-methylpiperazin-1-yl)phenyl]amino}-2-(propan-2-yl)-1H,2H,3H-pyrazolo[3,4-d]pyrimidin-3-one]	47	1.4	EC50 ([1]; Table 6, Present Invention, read-out: ELISA/nM): 47 nM; IC50 (Wee-1 kinase; Table 6, Present Invention, read-out: Wee-1/nM): 1.4 nM
C=CCn1c(=O)c2cnc(Nc3ccc(N4CCOCC4)c(C)c3)nc2n1-c1cccc(N=S(C)(C)=O)n1 [Example 21, 1-(6-{[Dimethyl(oxo)-λ^6-sulfanylidene]amino}pyridin-2-yl)-6-{[3-methyl-4-(morpholin-4-yl)phenyl]amino}-2-(prop-2-en-1-yl)-1H,2H,3H-pyrazolo[3,4-d]pyrimidin-3-one]	2	0.1	–
C=CCn1c(=O)c2cnc(Nc3ccc(N4CCNCC4)c(C)c3)nc2n1-c1cccc(N=S(C)(C)=O)n1 [Example 26, 1-(6-{[Dimethyl(oxo)-λ^6-sulfanylidene]amino}pyridin-2-yl)-6-{[3-methyl-4-(piperazin-1-yl)phenyl]amino}-2-(prop-2-en-1-yl)-1H,2H,3H-pyrazolo[3,4-d]pyrimidin-3-one]	4	0.4	–
C=CCn1c(=O)c2cnc(Nc3ccc(N4CCO[C@H](COC)C4)cc3)nc2n1-c1cccc(N=S(C)(C)=O)n1 [Example 54, 1-(6-{[Dimethyl(oxo)-λ^6-sulfanylidene]amino}pyridin-2-yl)-6-({4-[(2S)-2-(methoxymethyl)morpholin-4-yl]phenyl}amino)-2-(prop-2-en-1-yl)-1H,2H,3H-pyrazolo[3,4-d]pyrimidin-3-one]	5	0.3	EC50 [1, 3]: 5 nM; EC50 (A498 cells): 16 nM; EC50 (A427 cells): 17 nM; EC50 (SK-LU-1 cells): 35 nM; EC50 (HT29 cells): 32 nM
C=CCn1c(=O)c2cnc(Nc3ccc(N(C)C)cc3)nc2n1-c1cccc(N=S(C)(C)=O)n1 [Example 57, 1-(6-{[Dimethyl(oxo)-λ^6-sulfanylidene]amino}pyridin-2-yl)-6-{[4-(dimethylamino)phenyl]amino}-2-(prop-2-en-1-yl)-1H,2H,3H-pyrazolo[3,4-d]pyrimidin-3-one]	6	0.2	IC50 (Wee-1 kinase; [4]): 0.2 nM
C=CCn1c(=O)c2cnc(Nc3ccc(N4C[C@H]5COC[C@H]5C4)cc3)nc2n1-c1cccc(N=S(C)(C)=O)n1 [Example 67, 6-({4-[(3aR,6aS)-Hexahydro-1H-furo[3,4-c]pyrrol-5-yl]phenyl}amino)-1-(6-{[dimethyl(oxo)-λ^6-sulfanylidene]amino}pyridin-2-yl)-2-(prop-2-en-1-yl)-1H,2H, 3H-pyrazolo[3,4-d]pyrimidin-3-one]	7	0.1	–
C=CCn1c(=O)c2cnc(Nc3ccc(N4CCN[C@H](COC)C4)cc3)nc2n1-c1cccc(N=S(C)(C)=O)n1 [Example 76, 1-(6-{[Dimethyl(oxo)-λ^6-sulfanylidene]amino}pyridin-2-yl)-6-({4-[(3S)-3-(methoxymethyl)piperazin-1-yl]phenyl}amino)-2-(prop-2-en-1-yl)-1H,2H, 3H-pyrazolo[3,4-d]pyrimidin-3-one]	28	0.6	–
CS(C)(=O)=Nc1cccc(-n2c3nc(Nc4ccc(N5CCOCC5)cc4)ncc3c(=O)n2CC2CC2)n1 [Example 92, 2-(Cyclopropylmethyl)-1-(6-{[dimethyl(oxo)-λ^6-sulfanylidene]amino}pyridin-2-yl)-6-{[4-(morpholin-4-yl)phenyl]amino}-1H,2H,3H-pyrazolo[3,4-d]pyrimidin-3-one]	–	8.8	–
C#CCn1c(=O)c2cnc(Nc3cnn(C(C)C)c3)nc2n1-c1cccc(N=S(C)(C)=O)n1 [Example 94, 1-(6-((Dimethyl(oxo)-λ^6-sulfaneylidene)amino)pyridin-2-yl)-6-((1-isopropyl-1H-pyrazol-4-yl)amino)-2-(prop-2-yn-1-yl)-1,2-dihydro-3H-pyrazolo[3,4-d]pyrimidin-3-one]	–	1.2	–
C=CCn1cc(Nc2ncc3c(=O)n(CC=C)n(-c4cccc(N=S(C)(C)=O)n4)c3n2)cn1 [Example 95, 2-Allyl-6-((1-allyl-1H-pyrazol-4-yl)amino)-1-(6-((dimethyl(oxo)-λ^6-sulfaneylidene)amino)pyridin-2-yl)-1,2-dihydro-3H-pyrazolo[3,4-d]pyrimidin-3-one]	–	0.8	–
C=CCn1c(=O)c2cnc(Nc3cnn(C4CCCCC4)c3)nc2n1-c1cccc(N=S(C)(C)=O)n1 [Example 96, 2-Allyl-6-((1-cyclohexyl-1H-pyrazol-4-yl)amino)-1-(6-((dimethyl(oxo)-λ^6-sulfaneylidene)amino)pyridin-2-yl)-1,2-dihydro-3H-pyrazolo[3,4-d]pyrimidin-3-one]	–	0.4	–
